Test results: ChEMBL document CHEMBL1130110 (J Med Chem, 1997); call rule not given here

Tests used:
[1] = target: T1, Glucagon receptor (Rattus norvegicus, UniProt P30082); experiment: (§1) Binding affinity towards Glucagon receptor in rat liver plasma membranes by displacement of 125 I-labelled glucagon; assay type: cell membranes
[2] = target: T1, Glucagon receptor; experiment: pA2 value against Glucagon Receptor; settings: read-out: pA2 (converted)
[3] = target: T1, Glucagon receptor; experiment: Effective concentration was determined in cAMP accumulation assay using isolated hepatocytes in the presence rolipram.; assay type: functional, cell-based; settings: hepatocyte
[4] = target: T1, Glucagon receptor; experiment: as §1; assay type: cell membranes, Plasma Membrane

T1 sequence (P30082 whole entry): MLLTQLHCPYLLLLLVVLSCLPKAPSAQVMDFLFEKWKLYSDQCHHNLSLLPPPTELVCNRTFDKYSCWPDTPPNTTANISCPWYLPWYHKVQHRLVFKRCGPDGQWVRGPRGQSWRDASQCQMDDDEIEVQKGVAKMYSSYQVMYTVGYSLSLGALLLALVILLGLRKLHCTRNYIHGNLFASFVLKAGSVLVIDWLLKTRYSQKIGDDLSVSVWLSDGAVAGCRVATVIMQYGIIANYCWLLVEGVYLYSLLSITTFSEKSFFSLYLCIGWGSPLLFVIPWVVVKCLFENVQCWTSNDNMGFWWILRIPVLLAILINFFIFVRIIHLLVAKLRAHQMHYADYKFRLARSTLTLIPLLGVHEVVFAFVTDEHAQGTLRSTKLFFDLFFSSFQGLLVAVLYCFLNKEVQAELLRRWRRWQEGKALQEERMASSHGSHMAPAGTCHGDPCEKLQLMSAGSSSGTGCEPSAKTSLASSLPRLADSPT

| Compound | IC50 [1] | Kb [2] | EC50 [3] | IC50 [4] |
| --- | --- | --- | --- | --- |
| CSCC[C@H](NC(=O)[C@H](CC(C)C)NC(=O)[C@H](Cc1c[nH]c2ccccc12)NC(=O)[C@H](CCC(N)=O)NC(=O)[C@@H](NC(=O)[C@H](Cc1ccccc1)NC(=O)[C@H](CC(=O)O)NC(=O)[C@H](CCC(N)=O)NC(=O)[C@H](C)NC(=O)[C@H](CCCN=C(N)N)NC(=O)[C@H](CCCN=C(N)N)NC(=O)[C@H](CO)NC(=O)[C@H](CC(=O)O)NC(=O)[C@H](CC(C)C)NC(=O)[C@H](Cc1ccc(O)cc1)NC(=O)[C@H](CCCCN)NC(=O)[C@H](CO)NC(=O)[C@H](Cc1ccc(O)cc1)NC(=O)[C@H](CCC(=O)O)NC(=O)[C@H](CO)NC(=O)[C@@H](NC(=O)[C@@H](NC(=O)CNC(=O)[C@H](CCC(N)=O)NC(=O)[C@H](CO)NC(=O)[C@@H](N)Cc1c[nH]cn1)[C@@H](C)O)[C@@H](C)O)C(C)C)C(=O)N[C@@H](CC(N)=O)C(=O)N[C@H](C(N)=O)[C@@H](C)O | 113 nM | 631 nM | Not Active | – |
| CSCC[C@H](NC(=O)[C@H](CC(C)C)NC(=O)[C@H](Cc1c[nH]c2ccccc12)NC(=O)[C@H](CCC(N)=O)NC(=O)[C@@H](NC(=O)[C@H](Cc1ccccc1)NC(=O)[C@H](CC(=O)O)NC(=O)[C@H](CCC(N)=O)NC(=O)[C@H](C)NC(=O)[C@H](CCCN=C(N)N)NC(=O)[C@H](CCCN=C(N)N)NC(=O)[C@H](CO)NC(=O)[C@H](CC(=O)O)NC(=O)[C@H](CC(C)C)NC(=O)[C@H](Cc1ccc(O)cc1)NC(=O)[C@H](CCCCN)NC(=O)[C@H](CO)NC(=O)[C@H](Cc1ccc(O)cc1)NC(=O)[C@H](CCC(=O)O)NC(=O)[C@H](CO)NC(=O)[C@@H](NC(=O)[C@H](Cc1c[nH]c2ccccc12)NC(=O)[C@@H](NC(=O)CNC(=O)[C@H](CCC(N)=O)NC(=O)[C@@H](N)CO)[C@@H](C)O)[C@@H](C)O)C(C)C)C(=O)N[C@@H](CC(N)=O)C(=O)N[C@H](C(N)=O)[C@@H](C)O | 19 nM | 562 nM | Not Active | – |
| CSCC[C@H](NC(=O)[C@H](CC(C)C)NC(=O)[C@H](Cc1c[nH]c2ccccc12)NC(=O)[C@H](CCC(N)=O)NC(=O)[C@@H](NC(=O)[C@H](Cc1ccccc1)NC(=O)[C@H](CC(=O)O)NC(=O)[C@H](CCC(N)=O)NC(=O)[C@H](C)NC(=O)[C@H](CCCN=C(N)N)NC(=O)[C@H](CCCN=C(N)N)NC(=O)[C@H](CO)NC(=O)[C@H](CC(=O)O)NC(=O)[C@H](CC(C)C)NC(=O)[C@H](Cc1ccc(O)cc1)NC(=O)[C@H](CCCCN)NC(=O)[C@H](CO)NC(=O)[C@H](Cc1ccc(O)cc1)NC(=O)[C@H](CC(=O)O)NC(=O)[C@H](CO)NC(=O)[C@@H](NC(=O)[C@@H](NC(=O)CNC(=O)[C@H](CCC(N)=O)NC(=O)[C@H](CO)NC(=O)[C@@H](N)Cc1c[nH]cn1)[C@@H](C)O)[C@@H](C)O)C(C)C)C(=O)N[C@@H](CC(N)=O)C(=O)N[C@H](C(N)=O)[C@@H](C)O | 512 nM | 501 nM | Not Active | – |
| CSCC[C@H](NC(=O)[C@H](CC(C)C)NC(=O)[C@H](Cc1c[nH]c2ccccc12)NC(=O)[C@H](CCC(N)=O)NC(=O)[C@@H](NC(=O)[C@H](Cc1ccccc1)NC(=O)[C@H](CC(=O)O)NC(=O)[C@H](CCC(N)=O)NC(=O)[C@H](C)NC(=O)[C@H](CCCNC(=N)N)NC(=O)[C@H](CCCNC(=N)N)NC(=O)[C@H](CO)NC(=O)[C@H](CC(=O)O)NC(=O)[C@H](CC(C)C)NC(=O)[C@H](Cc1ccc(O)cc1)NC(=O)[C@H](CCCCN)NC(=O)[C@H](CO)NC(=O)[C@H](Cc1ccc(O)cc1)NC(=O)[C@H](CCC(=O)O)NC(=O)[C@H](CO)NC(=O)[C@@H](NC(=O)[C@H](C)NC(=O)[C@@H](NC(=O)CNC(=O)[C@H](CCC(N)=O)NC(=O)[C@@H](N)CO)[C@@H](C)O)[C@@H](C)O)C(C)C)C(=O)N[C@@H](CC(N)=O)C(=O)N[C@H](C(N)=O)[C@@H](C)O | – | 398 nM | – | 126 nM |
| CSCC[C@H](NC(=O)[C@H](CC(C)C)NC(=O)[C@H](Cc1c[nH]c2ccccc12)NC(=O)[C@H](CCC(N)=O)NC(=O)[C@@H](NC(=O)[C@H](Cc1ccccc1)NC(=O)[C@H](CC(=O)O)NC(=O)[C@H](CCC(N)=O)NC(=O)[C@H](C)NC(=O)[C@H](CCCN=C(N)N)NC(=O)[C@H](CCCN=C(N)N)NC(=O)[C@H](CO)NC(=O)[C@H](CC(=O)O)NC(=O)[C@H](CC(C)C)NC(=O)[C@H](Cc1ccc(O)cc1)NC(=O)[C@H](CCCCN)NC(=O)[C@H](CO)NC(=O)[C@H](Cc1ccc(O)cc1)NC(=O)[C@H](CC(=O)O)NC(=O)[C@H](CO)NC(=O)[C@@H](NC(=O)[C@@H](NC(=O)CNC(=O)[C@H](CCC(N)=O)NC(=O)[C@@H](N)CO)[C@@H](C)O)[C@@H](C)O)C(C)C)C(=O)N[C@@H](CC(N)=O)C(=O)N[C@H](C(N)=O)[C@@H](C)O | 128 nM | 562 nM | Not Active | – |
| CC(C)C[C@H](NC(=O)[C@H](Cc1ccc(O)cc1)NC(=O)[C@H](CCCCN)NC(=O)[C@H](CO)NC(=O)[C@H](Cc1ccc(O)cc1)NC(=O)[C@H](CC(=O)O)NC(=O)[C@H](CO)NC(=O)[C@@H](NC(=O)[C@@H](NC(=O)CNC(=O)[C@H](CCC(N)=O)NC(=O)[C@H](CO)NC(=O)[C@@H](N)Cc1c[nH]cn1)[C@@H](C)O)[C@@H](C)O)C(=O)N[C@@H](CC(=O)O)C(=O)N[C@@H](CO)C(=O)N[C@@H](CCCN=C(N)N)C(=O)N[C@@H](CCCN=C(N)N)C(=O)N[C@@H](C)C(=O)N[C@@H](CCC(N)=O)C(=O)N[C@@H](CC(=O)O)C(=O)N[C@@H](Cc1ccccc1)C(=O)N[C@H](C(=O)N[C@@H](CCC(N)=O)C(=O)N[C@@H](Cc1c[nH]c2ccccc12)C(=O)N[C@@H](CC(C)C)C(=O)N[C@@H](CCS)C(=O)N[C@@H](CC(N)=O)C(=O)N[C@H](C=O)[C@@H](C)O)C(C)C | – | – | Not Active | – |
| CSCC[C@H](NC(=O)[C@H](CC(C)C)NC(=O)[C@H](Cc1c[nH]c2ccccc12)NC(=O)[C@H](CCC(N)=O)NC(=O)[C@@H](NC(=O)[C@H](Cc1ccccc1)NC(=O)[C@H](CC(=O)O)NC(=O)[C@H](CCC(N)=O)NC(=O)[C@H](C)NC(=O)[C@H](CCCN=C(N)N)NC(=O)[C@H](CCCN=C(N)N)NC(=O)[C@H](CO)NC(=O)[C@H](CC(=O)O)NC(=O)[C@H](CC(C)C)NC(=O)[C@H](Cc1ccc(O)cc1)NC(=O)[C@H](CCCCN)NC(=O)[C@H](CO)NC(=O)[C@H](Cc1ccc(O)cc1)NC(=O)[C@H](CCC(=O)O)NC(=O)[C@H](CO)NC(=O)[C@@H](NC(=O)[C@@H](NC(=O)CNC(=O)[C@H](CCC(N)=O)NC(=O)[C@@H](N)CO)[C@@H](C)O)[C@@H](C)O)C(C)C)C(=O)N[C@@H](CC(N)=O)C(=O)N[C@H](C(=O)O)[C@@H](C)O (stereo in doubt; 13) | – | – | Not Active | – |
| CSCC[C@H](NC(=O)[C@H](CC(C)C)NC(=O)[C@H](Cc1c[nH]c2ccccc12)NC(=O)[C@H](CCC(N)=O)NC(=O)[C@@H](NC(=O)[C@H](Cc1ccccc1)NC(=O)[C@H](CC(=O)O)NC(=O)[C@H](CCC(N)=O)NC(=O)[C@H](C)NC(=O)[C@H](CCCN=C(N)N)NC(=O)[C@H](CCCN=C(N)N)NC(=O)[C@H](CO)NC(=O)[C@H](CC(=O)O)NC(=O)[C@H](CC(C)C)NC(=O)[C@H](Cc1ccc(O)cc1)NC(=O)[C@H](CCCCN)NC(=O)[C@H](CO)NC(=O)[C@H](Cc1ccc(O)cc1)NC(=O)[C@H](CCC(=O)O)NC(=O)[C@H](CO)NC(=O)[C@@H](NC(=O)[C@H](Cc1ccc(O)cc1)NC(=O)[C@@H](NC(=O)CNC(=O)[C@H](CCC(N)=O)NC(=O)[C@@H](N)CO)[C@@H](C)O)[C@@H](C)O)C(C)C)C(=O)N[C@@H](CC(N)=O)C(=O)N[C@H](C(N)=O)[C@@H](C)O | 40 nM | 631 nM | Not Active | – |
